No end group written: not given here.
Tests used:
Assay in all cases: MIC90 growth inhibition
Assay type in all cases: cell-based
Conditions in all cases: RPMI 1640 one-fourth strength
[1] = tested on: Trichophyton rubrum
Experimental: (§1) The minimum inhibitory concentration (MIC) value is defined as the lowest sample concentration that inhibited growth. In the Examples, the MIC90 value is presented, which MIC90 values are determined according to established methods known to the person with the skills in the relevant art. Experiments; 1×10E5 CFU of various strains/ml were incubated for 24-48 h at 37° C. in 4× diluted medium of RPMI 1640 with the indicated concentrations of antimicrobial peptide hLF(1-11) [SEQ ID NO: 3]. As controls various strains cells were incubated for 24-48 h at 37° C. with no agent (antimicrobial peptide), and subsequently, growth of the microbial organism (e.g. yeast, bacterium) was monitored by using spectrophotometry with a spectrophotometer at 620 nm. […] ND=Not done. Representative single assay data are listed rather than a range, for clarity reasons and for ease of comparison of peptide efficacy. The MIC was calculated as the lowest antibiotic (antimicrobial peptide) concentration at which growth of the assessed yeast or bacterium (microbe) was inhibited (inhibitory concentration IC90).

[2] = tested on: Malassezia furfur CBS 9595
Experimental: as §1

[3] = tested on: Rhizopus spp
Experimental: as §1

[4] = tested on: Absidia corymbifera
Experimental: as §1

[5] = tested on: Malassezia pachydermatis CBS 1883
Experimental: as §1

[6] = tested on: Saccharomyces cerivisiae CMC-520
Experimental: as §1

[7] = tested on: Aspergillus fumigatus
Experimental: as §1

[8] = tested on: Cryptococcus curvatus
Experimental: as §1

[9] = tested on: Malassezia furfur CBS 14141
Experimental: as §1

[10] = tested on: Mycobacterium avium
Experimental: as §1

[11] = tested on: Staphylococcus epidermidis
Experimental: as §1

[12] = tested on: Phialophora verrucosa
Experimental: as §1

[13] = tested on: Aspergillus nidulans
Experimental: as §1

[14] = tested on: Trichosporon beigelii
Experimental: as §1

[15] = tested on: Penicillium spp
Experimental: as §1

[16] = tested on: Fusarium solani
Experimental: as §1

[17] = tested on: Escherichia coli
Experimental: as §1

[18] = tested on: Penicillium pinophilum
Experimental: as §1

[19] = tested on: Staphylococcus aureus (MRSA)
Experimental: as §1

[20] = tested on: Fusarium oxysporum
Experimental: as §1

[21] = tested on: C. neoformans
Experimental: as §1

[22] = tested on: Nannizzia incurvata
Experimental: as §1

[23] = tested on: Aspergillus spp
Experimental: as §1

[24] = tested on: M. guilliermondii CBS-2030 (Perugia)
Experimental: as §1

[25] = tested on: Paracoccidioides brasiliensis
Experimental: as §1

[26] = tested on: Moraxella catarrhalis
Experimental: as §1

[27] = tested on: Candida spp.
Experimental: as §1

[28] = tested on: Mucor spp
Experimental: as §1

[29] = tested on: Trichophyton violaceum
Experimental: as §1

[30] = tested on: Penicillium italicum
Experimental: as §1

[31] = tested on: Trichosporon cutaneum
Experimental: as §1

[32] = tested on: Torula spp
Experimental: as §1

[33] = tested on: Fonsecaea pedrosoi
Experimental: as §1

[34] = tested on: Vibrio cholerae
Experimental: as §1

[35] = tested on: Malassezia furfur CBS-4172
Experimental: as §1

[36] = tested on: Aspergillus versicolor
Experimental: as §1

[37] = tested on: Fusarium moniliforme
Experimental: as §1

[38] = tested on: Streptococcus lactis
Experimental: as §1

[39] = tested on: Malassezia globosa
Experimental: as §1

[40] = tested on: Dekkera bruxellensis
Experimental: as §1

[41] = tested on: Streptocococcus mitis 033
Experimental: as §1

[42] = tested on: Penicillium vermiculatum
Experimental: as §1

[43] = tested on: Staphylococcus aureus 10649
Experimental: as §1

[44] = tested on: Streptocococcus mitis 032
Experimental: as §1

[45] = tested on: Penicillium expansum
Experimental: as §1

## GRRRRSVQWCA [hLF1-11, Gly Arg Arg Arg Arg Ser Val Gln Trp Cys Ala]
[1]
  Inhibitory concentration MIC (MIC90): MIC = 13-60 μg/ml
[2]
  Inhibitory concentration MIC (MIC90): MIC = 25-50 μg/mL
[3]
  Inhibitory concentration MIC (MIC90): MIC = 25 μg/mL
[4]
  Inhibitory concentration MIC (MIC90): MIC = 40 μg/ml
[5]
  Inhibitory concentration MIC (MIC90): MIC = 25-50 μg/mL
[6]
  Inhibitory concentration MIC (MIC90): MIC = 50 μg/ml
[7]
  Inhibitory concentration MIC (MIC90): MIC = 2.5-25 μg/ml
[8]
  Inhibitory concentration MIC (MIC90): MIC = 9 μg/ml
[9]
  Inhibitory concentration MIC (MIC90): MIC = 12.5-50 μg/mL
[10]
  Inhibitory concentration MIC (MIC90): MIC = 50 μg/ml
[11]
  Inhibitory concentration MIC (MIC90): MIC = 3.1 μg/ml
[12]
  Inhibitory concentration MIC (MIC90): MIC = 5-10 μg/ml
[13]
  Inhibitory concentration MIC (MIC90): MIC = 2.5-12.5 μg/ml
[14]
  Inhibitory concentration MIC (MIC90): MIC = 40 μg/ml
[15]
  Inhibitory concentration MIC (MIC90): MIC = 12.5-50 μg/ml
[16]
  Inhibitory concentration MIC (MIC90): MIC = 8-16 μM
[17]
  Inhibitory concentration MIC (MIC90): MIC = 6.3 μg/ml
[18]
  Inhibitory concentration MIC (MIC90): MIC = 45 μg/ml
[19]
  Inhibitory concentration MIC (MIC90): MIC = 1.6 μg/ml
[20]
  Inhibitory concentration MIC (MIC90): MIC = 8-16 μM
[21]
  Inhibitory concentration MMC: MMC = 50 μg/ml
[22]
  Inhibitory concentration MIC (MIC90): MIC = 18 μg/ml
[23]
  Inhibitory concentration MIC (MIC90): MIC = 2.5-12.5 μg/ml
[24]
  Inhibitory concentration MIC (MIC90): MIC = 50 μg/mL
[25]
  Inhibitory concentration MIC (MIC90): MIC = 0.63-1.25 μg/ml
[26]
  Inhibitory concentration MIC (MIC90): MIC = 2 μg/ml
[27]
  Inhibitory concentration MIC (MIC90): MIC = 12.5-50 μg/ml
[28]
  Inhibitory concentration MIC (MIC90): MIC = 25-50 μg/mL
[29]
  Inhibitory concentration MIC (MIC90): MIC = 40 μg/ml
[30]
  Inhibitory concentration MIC (MIC90): MIC = 8 μM
[31]
  Inhibitory concentration MIC (MIC90): MIC = 1.25-18 μg/ml
[32]
  Inhibitory concentration MIC (MIC90): MIC = 40 μg/ml
[33]
  Inhibitory concentration MIC (MIC90): MIC = 5 μg/ml
[34]
  Inhibitory concentration MIC (MIC90): MIC = 12.5 μg/ml
[35]
  Inhibitory concentration MIC (MIC90): MIC = 50 μg/ml
[36]
  Inhibitory concentration MIC (MIC90): MIC = 10 μg/ml
[37]
  Inhibitory concentration MIC (MIC90): MIC = 2.5-5 μg/ml
[38]
  Inhibitory concentration MIC (MIC90): MIC = 3.1 μg/ml
[39]
  Inhibitory concentration MIC (MIC90): MIC = 12.5-50 μg/mL
[40]
  Inhibitory concentration MIC (MIC90): MIC = 3.75-20 μM
[41]
  Inhibitory concentration MIC (MIC90): MIC = 6.3 μg/ml
[42]
  Inhibitory concentration MIC (MIC90): MIC = 45 μg/ml
[43]
  Inhibitory concentration MIC (MIC90): MIC = 1.6 μg/ml
[44]
  Inhibitory concentration MIC (MIC90): MIC = 6.3 μg/ml
[45]
  Inhibitory concentration MIC (MIC90): MIC = 16 μM
